For assay [1], the system named is human keratinocytes. As to the kind of experiment: Mitochondrial fragmentation in keratinocytes, UV Study (Example 2), TPEF imaging of NADH, PSD exponent β. As to conditions: B3 10 mM, AceMet 500 uM, MeNAM 10 mM alone or 500 uM with B3; for Effect on UV-induced mitochondrial fragmentation in words: UV-exposed; for Mitochondrial Fragmentation (−) UV (3 days) / Mitochondrial Fragmentation (+) UV (4 days): keratinocytes; for Mitochondrial Fragmentation (−) UV (3 days): 3 days before UV exposure, control 1.30; for Mitochondrial Fragmentation (+) UV (4 days): 4 days after UV exposure (4 J/cm^2 UVA+UVB, 14 min daily), UV control 1.58. It is filed as cell-based. As for the experimental part:
Test compounds (B3, AceMet and MeNAM) were purchased from Sigma (St. Louis, Mo.). Cell culture growth media (Epilife media with calcium (Cat #MEPI500CA) and Epilife media supplement HKGS 100X (Cat #S-001-5)) was purchased from Thermofisher (Waltham, Mass.). Cryopreserved human keratinocytes cells (˜1×10^6 cells) were plated on 12-well glass bottom plates at a confluence of ˜15%. The cells were suspended in primary keratinocyte growth media (Epilife media with calcium) and incubated @ 37° C. for 1d (Day 0). At Day 1, cells began treatment with supplemented primary keratinocyte growth media (Epilife media with calcium supplemented with HKGS 100X; 25 ml total) without test compound (Control sample) or containing test compounds B3 (10 mM), MeNAM (10 mM), AceMet (500 uM), B3 (10 mM)+AceMet (500 uM) or B3 (10 mM)+MeNAM (500 uM). Cell treatment (25 ml media with or without test compounds as above) continued daily for 4 additional days (Non-UV Study—Example 1) or 2 additional days (UV Study—Example 2). For the UV Study, cells were subjected to UV treatment on Day 4 by replacing media with PBS, exposing cells to UV light (4 J/cm^2 of UVA+UVB) for 14 min and feeding cells with media with or without corresponding test compounds as defined above. UV treatments continued daily for 3 additional days (Days 5, 6 and 7). Image acquisition and analysis on all cell wells to assess mitochondrial fragmentation was conducted on Day 1, 3, 5 and 8.
(§1) For two-photon excited fluorescence (TPEF) imaging, cell cultures were placed in microscope-compatible micro-incubator system, which maintained 37° C. within a humidified environment throughout the imaging session.
HEPES buffering agent (Sigma) was added to cell cultures in primary keratinocyte growth medium before imaging, which maintained the pH of cell cultures throughout the imaging session. Images were obtained using a Leica TCS SP8 confocal microscope equipped with a tunable (680-1300 nm) titanium-sapphire laser (InSight Deep See; Spectra Physics; Mountain View, Calif.). Images (1024×1024 pixels; 386×386 μm) were acquired using water-immersion 25×objective (NA 0.95; 2.4 mm working distance), with simultaneous collection by two non-descanned photomultiplier tube (PMT) detectors using a filter cube containing filters from Chroma (Bellows Falls, Vt.), including a 700 nm short pass filter (ET700SP-2P) and a 495 nm dichroic mirror (495DCXR). To isolate NADH fluorescence, a 460(±20) nm emission filter (Chroma, ET460/40M-2P), corresponding to the NADH emission peak, was placed before one of the non-descanned detectors. NADH fluorescence images were acquired from this 460 nm channel using 755 nm excitation. FAD fluorescence was isolated using a 525(±25) nm emission filter (Chroma, ET525/50M-2P) for the other non-descanned detector and 860 nm excitation. The two-photon action cross section of NADH decreases by several orders of magnitude between 755 nm and 860 nm excitation, enabling an efficient isolation of FAD at longer wavelengths. The fluorescence lifetime images (512×512 pixels; 386×386 μm) corresponding to NADH were acquired under the same excitation and emission settings, using SymPho software. PMT gain was adjusted for each image to maximize contrast while preventing a saturated pixel intensity value. The PMT gain and laser power were recorded for each image and used to normalize fluorescence intensity.
To assess mitochondrial fragmentation, a previously established Fourier transform technique was used to obtain power spectral density (PSD) curves from each image. […]

The test system of assay [2] is human keratinocytes. Description: Mitochondrial fragmentation in keratinocytes (Non-UV Study, Example 1), TPEF imaging of NADH, PSD exponent β. Type of assay: cell-based. To be noted: no UV, B3 10 mM. Here is the method:
Test compounds (B3, AceMet and MeNAM) were purchased from Sigma (St. Louis, Mo.). Cell culture growth media (Epilife media with calcium (Cat #MEPI500CA) and Epilife media supplement HKGS 100X (Cat #S-001-5)) was purchased from Thermofisher (Waltham, Mass.). Cryopreserved human keratinocytes cells (˜1×10^6 cells) were plated on 12-well glass bottom plates at a confluence of ˜15%. The cells were suspended in primary keratinocyte growth media (Epilife media with calcium) and incubated @ 37° C. for 1d (Day 0). […]
as §1
HEPES buffering agent (Sigma) was added to cell cultures in primary keratinocyte growth medium before imaging, which maintained the pH of cell cultures throughout the imaging session. […] To isolate NADH fluorescence, a 460(±20) nm emission filter (Chroma, ET460/40M-2P), corresponding to the NADH emission peak, was placed before one of the non-descanned detectors. NADH fluorescence images were acquired from this 460 nm channel using 755 nm excitation. FAD fluorescence was isolated using a 525(±25) nm emission filter (Chroma, ET525/50M-2P) for the other non-descanned detector and 860 nm excitation. […]

Marks after values point to notes of the source that are not given here.

On to `CSCC[C@H](NC(C)=O)C(=O)O` [AceMet, N-acetylmethionine], for which, in assay [1], the “Effect on mitochondrial fragmentation in words, Non UV-exposed keratinocytes” value (“Effect … Non UV-exposed keratinocytes” below) is recorded as “does not significantly reduce mitochondrial fragmentation”; the “Effect on UV-induced mitochondrial fragmentation in words” value was “increases mitochondrial fragmentation beyond UV-exposed levels”; the “Mitochondrial Fragmentation (−) UV (3 days)” value is 1.47^c,e; the “Mitochondrial Fragmentation (+) UV (4 days)” value is 1.76^c,e,h.
As for `NC(=O)c1cccnc1` [B3, Nicotinamide], in assay [2] (keratinocytes after 5 days exposure, AceMet 500 uM, MeNAM 500 uM, higher value = less protection, control 1.88), the “Mitochondrial Fragmentation” value was 1.67 ^a. Besides, in assay [2] (keratinocytes, 5 days, AceMet or MeNAM 500 uM), the “Effect on mitochondrial fragmentation in words” value is “decreases mitochondrial fragmentation”. Moreover, in assay [1], the “Effect … Non UV-exposed keratinocytes” value was “does not significantly reduce mitochondrial fragmentation”; the “Effect on UV-induced mitochondrial fragmentation in words” value is reported as “effective at reducing this UV-induced effect down to control levels”; the “Mitochondrial Fragmentation (−) UV (3 days)” value is reported as 1.18; the “Mitochondrial Fragmentation (+) UV (4 days)” value is 1.34 ^d.
Take `C[n+]1cccc(C(N)=O)c1` [MeNAM, 1-methylnicotinamide chloride]: in assay [1], the “Effect … Non UV-exposed keratinocytes” value is reported as “significantly reduces mitochondrial fragmentation”; the “Effect on UV-induced mitochondrial fragmentation in words” value is on record as “effective at reducing this UV-induced effect down to control levels”; the “Mitochondrial Fragmentation (−) UV (3 days)” value is on record as 1.15^a; the “Mitochondrial Fragmentation (+) UV (4 days)” value is recorded as 1.29^a,d.
